We go through 85 molecules from a melting point compilation (Tetko et al.; mined from patent text by program, amines drawn as free bases though some values may be those of a salt).

In the case of `CN(C)CCc1nnc2n1-c1ccc(Cl)cc1C(c1ccccc1Cl)=NC2`, the melting point (commonly the temperature, or range, at which the solid turns liquid) was in the range of 150 to 153 °C.
As for `OCc1ccc2oc(-c3cccs3)nc2c1`, the figure is 158 to 159 °C; as for `O=C(O)Cc1cccc2c(=O)cc(-c3cccc(F)c3)oc12`, 208 to 211 °C.
`Cc1nnc(CNC(=O)CNC(=O)CN2C(=O)c3ccccc3C2=O)n1-c1ccc(Cl)cc1C(=O)c1ccccc1Cl` had a melting point of 269 to 270 °C.
As for `CN1CCCN=C1C(Br)(Br)[N+](=O)[O-]`, the melting point lay in the range of 106 to 107 °C.
With `O=C(CN1C(=O)C(NC(=O)Nc2ccc(Cl)cc2)N=C(c2ccccc2)c2ccccc21)NCc1ccccc1` (stereo not given), the melting point was in the range of 260 to 262 °C.
As for `CCOC(=O)c1c(Cn2cnnc2)nc2cc3c(cc2c1-c1ccc(OC)c(OC)c1)OCCO3`, the figure is 237 to 239 °C; as for `C=CCNc1c(C(=O)O)cnc2cn[nH]c12`, 240 to 242 °C; as for `CCCC(C)(C)NC(=O)n1nc(C)n(N)c1=O`, 110 °C.
As for `Cc1ccc(NC(=O)Cc2ccccc2C(=O)O)cc1/C=C/c1nc(C(C)C)cs1`, the figure is 181 to 183 °C.
Next, `O=C(c1ccccc1NCc1ccncc1)[NH+]([O-])c1cc2ccccc2cn1` (stereo not given): 212 °C.
The molecule `O=C(O)c1ncn2c1Cn1ccnc1-c1sccc1-2` registered a melting point of 225 to 227 °C.
In turn, `CCOC(=O)c1nc(N)sc1-c1nc2ccccn2c1C` gave a melting point of 180 to 182 °C.
Next, `Cc1ccc(CCc2nc3cc(-c4ccc(S(=O)(=O)N(C)C)cc4)cnc3[nH]2)nc1N`: 157 °C.
Turning to `O=C(NCCO)c1cccc(-c2cccc3cc(Cc4cc(F)cc(Cl)c4)sc23)n1`, the melting point was in the range of 139 to 140 °C.
On to `O=Cc1cccc2cc3ccccc3cc12`, for which the melting point is 126 to 128 °C.
Next, `NCc1ccc(CN2CCN(c3ncccn3)CC2)cc1`: 70 to 72 °C; `Nc1nc(NCc2ccccc2)nc(-c2cc(Cl)ccc2Cl)n1`: 200 to 201 °C.
In turn, `c1ccc2c(c1)C[C@@H]1CCc3ccccc3[C@@H]1O2` (relative stereo) showed a melting point of 71 to 72 °C.
Next, `CCC(CC)C(=O)Nc1cc(-c2ccccc2)nc(-c2ccccc2)n1`: 102 °C; `COc1ccc2c(c1)c(-c1cc3nccnc3[nH]1)cn2Cc1ccccc1`: 240 to 244 °C; `COc1cc2occ(C(=O)Nc3cccnc3)c2cc1C(F)(F)F`: 219 to 221 °C.
`CC1(C(=O)O)Oc2ccc(Cl)cc2C(C)(c2ccccc2)O1` (stereo not given) had a melting point of 181 °C.
Take `Nc1cn2cc(Sc3ccccc3)ccc2n1`: the melting point lay within 110 to 112 °C.
With `CC1(C(=O)N2CCN(S(=O)(=O)c3ccc(Br)cc3)CC2)CCN(c2ccncn2)CC1`, the melting point was 217 to 218 °C.
As for `CCCCCCCc1c(C(C)C)nc(C(C)C)c(CO)c1-c1ccc(F)cc1`, the figure is 73 to 75 °C.
Molecule `Cc1cc(C(=O)c2cccc(Br)c2)c(O)cc1Cl` came in with a melting point of 115 to 117 °C.
As for `CC(C)(C)c1ccc(S(=O)(=O)N2c3ccccc3C[C@H]2C(=O)NCc2ccc(N)cc2)cc1`, the melting point was in the range of 83 to 87 °C.
As for `CCn1c(COc2ccc(NC(=O)c3cc(F)cc(N4CCOCC4)c3)c3ccccc23)n[nH]c1=O`, the figure is 260 °C; as for `Nc1cc(N2C(=O)c3ccccc3C2=O)c(F)cc1Cl`, 148 °C; as for `COc1ccc(C2(CCN3CCC(C(O)(c4ccccc4)c4ccccc4)CC3)CCN(C(=O)c3cc(OC)c(OC)c(OC)c3)C2)cc1OC` (stereo not given), 95 to 97 °C.
Next, `Cc1cccc(C(=O)Nc2ccc(S(N)(=O)=O)cc2)c1SSc1c(C)cccc1C(=O)Nc1ccc(S(N)(=O)=O)cc1`: 308 to 309 °C; `COc1cc2c(cc1OC)N(C(=O)CCSC(C)=O)C(C(=O)O)CC2` (stereo not given): 104 to 107 °C.
Consider `COc1cc(N)c(Cl)cc1C(=O)OCC1CCN(CCCOc2ccc(F)cc2)CC1`, for which the melting point was determined as 140 °C.
As for `O=C(NC[C@@H](C(=O)NO)N1CCCCC1)c1ccc(OCc2cc(Cl)nc(Cl)c2)cc1`, the figure is 145 °C; as for `O=C(Oc1cc([N+](=O)[O-])c(F)cc1Cl)Oc1cc([N+](=O)[O-])c(F)cc1Cl`, 165 to 166 °C.
`CC(=O)c1cccc(NC(=O)NCC(=O)N(CC(=O)N2CCCc3ccccc32)c2ccccc2)c1` registered a melting point of 130 °C.
As for `CCc1c2c(nn1CC)c(N)nc1ccccc12`, the figure is 234 to 236 °C.
As for `CN1C(c2ccc(F)cc2)=NC(C(F)(F)F)(C(F)(F)F)C1NC(=O)c1ccc(N2CCCCC2)cc1` (stereo not given), the figure is 128 to 129 °C.
`O=C1N(Cc2cccc(-c3noc(C(F)(F)F)n3)c2)c2ccccc2C12COc1cc3c(cc12)CCO3` (stereo not given) gave a melting point of 182 to 188 °C.
Next, `CC(C)Sc1c(C(N)=O)sc2cccc(Cl)c12`: 182 to 184 °C; `N#Cc1cc(Cl)ccc1Oc1cc(N2CCOCC2)c(F)cc1OCc1ccccc1`: 134 to 135 °C.
In turn, `CCC(C)(O)CCC1C(C)(OC(C)=O)CCC2C(C)(C)CCCC21C` (stereo not given) registered a melting point of 92 to 94 °C.
As for `O=C1C(CCC(O)c2ccc(F)cc2)C(c2ccc(-c3ccc(O)cc3)cc2)N1c1ccc(F)cc1` (stereo not given), the figure is 110 °C; as for `CCSc1ccc2c(c1)C(Cl)Cc1ccc(F)cc1S2` (stereo not given), 99 °C; as for `CCCCNC(=O)CC(=O)Nc1ccc(Br)cc1C`, 123 to 125 °C.
As for `CCCCCCCCP(=O)(O)CCCCCCCC`, the figure is 84 to 86 °C.
Next, `Cc1nc(C)c(Cl)c(NCc2ccc(OCCn3c([N+](=O)[O-])cnc3C)c(Cl)n2)n1`: 206 to 208 °C; `CCCCC(=O)NCc1ccc2c(c1)C(=O)N(C1CCC(=O)NC1=O)C2=O` (stereo not given): 184 to 186 °C; `CCOC(=O)c1ccccc1NCc1c(-c2ccccc2)nn(C)c1Cl`: 123 °C.
Molecule `CC(=O)C1CCC2C3CC=C4CCCCC4(C)C3CCC12C` (stereo not given) returned a melting point of 207 to 209 °C.
Consider `CC(C)(C)C(=O)Nc1ccc(F)cc1C1(O)CCN(C/C=C/c2ccc(Cl)cc2)CC1`, for which the melting point was in the range of 172 to 173 °C.
In turn, `O=C(NCCc1ncc(Cl)cc1Cl)c1ccccc1I` had a melting point of 133 °C.
Next, `c1cn(Cc2ccc3c(c2)-c2[nH]nc(-c4ccsc4)c2C3)cn1`: 200 to 204 °C; `CC(=O)Oc1cc(CCc2ccccc2)cc(OC(C)=O)c1`: 48 to 48.5 °C.
Next, `C=C(C)COc1ccc(Br)cc1CN(CC)c1ccc(-c2nnco2)nn1`: 90 to 92 °C; `Cc1cc(C(=O)CCc2cc(-c3ccc(C(F)(F)F)cc3)nn2Cc2ccccc2)ccc1OCC(=O)O`: 175 to 180 °C; `CCOC(=O)NNc1cc(C)c(-c2cccc([N+](=O)[O-])c2)nn1`: 186 to 187 °C.
Next, `Cc1c(NC(=O)c2ccc(OC[C@@H]3CCCO3)cc2)ccc2[nH]c(CNCC3CCOCC3)cc12`: 166 to 167 °C; `Cc1cnc(-c2ccc(Br)cc2)nc1-c1ccc(Br)cc1`: 136 to 137 °C; `CN(C)CCOc1ccc(C2(c3ccccc3)OCCC2c2ccccc2)cc1` (stereo not given): 83 to 85 °C.
In turn, `C(=Cc1ccc(-c2cc3c(ccc4oc5ccccc5c43)o2)cc1)c1ccccc1` came in with a melting point of 239 to 241 °C.
`O=C1NCC2=C1c1ccc(Cl)cc1C(c1ccccc1Cl)=NC2`: the melting point lay within 195 to 197 °C.
`C[C@H]1c2cc(F)ccc2-c2ccccc2N1S(=O)(=O)c1ccc(O)cc1` yielded a melting point of 193 °C.
Next, `CCN(CC)C(=O)c1cc2ccccc2c(-c2ccc(Cl)cc2)n1`: 122 °C; `CCc1c(C)[nH]c(=O)c(N(C)C)c1Cc1cc(C)cc(C)c1`: 229 to 230 °C; `OCCN1CCN(c2cc(Cl)nnc2Cl)CC1`: 139 to 141 °C.
As for `CC(O)c1ccc(CNC(=O)c2cccnc2Oc2cccnc2)s1` (stereo not given), the figure is 92 to 94 °C; as for `COc1ccc(-c2cnc3c(-c4cc(-c5ccccc5)cs4)cnn3c2O)cc1Br`, over 300 °C; as for `CCN(CC)CCNC(=O)N1CCCC(S(=O)(=O)c2ccc(OC)cc2)C1` (stereo not given), 118 to 121 °C.
Next, `CCOC(=O)Oc1ccc(S(=O)(=O)N2c3cc(F)c(F)cc3-n3cccc3C2CC)cc1` (stereo not given): 105 to 107 °C; `CC(C)(C)OC(=O)NC1CCN(CCn2c(=O)ccc3ccc(C#N)cc32)CC1`: 202 °C.
Molecule `CC(=O)OC1CC2CCC3C(CCC4(C)C(C(C)=O)CCC34)C2(C)CC1Br` (stereo not given) returned a melting point of 142 to 146 °C.
Next, `CCC(=O)Oc1ccc2c(c1)C(=O)N(C(=O)CC)C(C(Cl)(Cl)Cl)O2` (stereo not given): 92 to 94 °C.
Next, `CC(C)(C)NS(=O)(=O)c1c(C(Br)Br)nsc1OCC(F)(F)F`: 135 to 138 °C; `O=C(Nc1cc2c(cc1C(=O)c1ccccc1)OCO2)c1ccccc1`: 195 to 197 °C; `CN(C)C(=O)c1c(-c2ccccc2F)ccc2ccccc12`: 105 to 106 °C.
Molecule `CSc1nc(OCCN2CCCC2=O)c(C#N)c(N2CCc3ccccc3CC2)n1` yielded a melting point of 126 to 128 °C.
As for `COc1cc(CCN(C)Cc2ccc(OC)c(OC)c2)ccc1NC(=O)c1cccc2c(=O)c3cccc(F)c3[nH]c12`, the figure is 161 to 162 °C.
As for `CC(=O)NC[C@H]1CN(c2ccc(C3=CCCCO3)c(F)c2)C(=O)O1`, the figure is 161 to 163 °C.
Consider `NS(=O)(=O)c1cc(NC(=O)c2cnn3c(C(F)(F)F)cc(-c4ccc(Cl)cc4)nc23)c(Cl)s1`, for which the melting point stood at 329 °C.
Consider `Cc1cccc(C(=O)Nc2ccc(N3CCN(Cc4ccccc4)CC3)nc2)c1-c1ccc(C(C)C)cc1`, for which the melting point fell in the range of 138 to 140 °C.
Turning to `OCc1cc(Cl)cc(Cl)c1Cl`, the melting point was 90 to 93 °C.
`CO/C=C(/C(=O)OC)c1ccccc1CSc1nc2ccccc2s1` gave a melting point of 77 to 78 °C.
Next, `O=C1c2c(Cl)cc(Cl)c(Cl)c2C(=O)N1c1ccccc1`: 199 to 200 °C.
